From patent publication US10131652B2, “Pyrimidinyloxy benzene derivatives as herbicides” (E. I. DU PONT DE NEMOURS AND COMPANY, priority 2014, dated 2018)
Where two headings read alike, the source gives them in different places.

Legend:
Type in all cases: in vivo
kochia (Kochia scoparia) = experiment: Test D postemergence plant response; settings: for pest or weed control at 31 g/ha: 31 g ai/ha; for pest or weed control at 62 g/ha: 62 g ai/ha
Method in brief: (§1)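 Postemergence spray on plants 2–18 cm tall (1- to 4-leaf stage), grown in pots of peat/vermiculite medium. Plants were kept in a greenhouse for 13–15 days, then visually rated against untreated controls on a 0 (no effect) to 100 (complete control) scale.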

wild oat (Avena fatua) = experiment: Test D postemergence plant response; settings: for pest or weed control at 31 g/ha: 31 g ai/ha; for pest or weed control at 62 g/ha: 62 g ai/ha
Method in brief: as §1

[1] = test system: chickweed (common chickweed, Stellaria media); experiment: Test D postemergence plant response; settings: for pest or weed control at 31 g/ha: 31 g ai/ha; for pest or weed control at 62 g/ha: 62 g ai/ha
Method in brief: as §1

[2] = test system: waterhemp_RES1 (ALS & Triazine resistant common waterhemp, Amaranthus rudis); experiment: Test F postemergence plant response; settings: scale 0 to 100
Experimental: (§2) At the same time, plants from these crop and weed species and also waterhemp_RES1, (ALS & Triazine resistant common waterhemp, Amaranthus rudis), and waterhemp_RES2, (ALS & HPPD resistant common waterhemp, Amaranthus rudis) were treated with postemergence applications of test chemicals formulated in the same manner. Plants ranged in height from 2 to 18 cm for postemergence treatments (1- to 4-leaf stage).
(§3) Treated plants and controls were maintained in a greenhouse for 14 to 21 days, after which time all species were compared to controls and visually evaluated. Plant response ratings, summarized in Table F, are based on a scale of 0 to 100 where 0 is no effect and 100 is complete control. A dash (-) response means no test result.

[3] = test system: waterhemp_RES2 (ALS & HPPD resistant common waterhemp, Amaranthus rudis); experiment: Test F postemergence plant response; settings: scale 0 to 100
Experimental: as §2, §3

[4] = test system: large (Lg) crabgrass (Digitaria sanguinalis); experiment: Test B pre-/postemergence plant response; settings: Digitaria sanguinalis, 240 h, read-out: Plant response rating, Crabgrass, Large; for pest or weed control at 1000 g/ha: 1000 g ai/ha; for pest or weed control at 125 g/ha: 125 g ai/ha; for pest or weed control at 500 g/ha: 500 g ai/ha
Method in brief: (§4)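 Visual injury rating, 0 (no effect) to 100 (complete control), vs untreated controls after ~10 d greenhouse. Pre: directed soil spray after planting in loam/sand. Post: plants 2–10 cm, 1–2 leaf stage. Compound in non-phytotoxic solvent plus surfactant.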

[5] = test system: velvetleaf (Abutilon theophrasti); experiment: Test B pre-/postemergence plant response; settings: Abutilon theophrasti, 240 h, read-out: Plant response rating, Velvetleaf; for pest or weed control at 1000 g/ha: 1000 g ai/ha; for pest or weed control at 125 g/ha: 125 g ai/ha; for pest or weed control at 500 g/ha: 500 g ai/ha
Method in brief: as §4

[6] = test system: morningglory (Ipomoea spp.); experiment: Test B pre-/postemergence plant response; settings: Ipomoea, 240 h, read-out: Plant response rating, Morningglory; for pest or weed control at 1000 g/ha: 1000 g ai/ha; for pest or weed control at 125 g/ha: 125 g ai/ha; for pest or weed control at 500 g/ha: 500 g ai/ha
Method in brief: as §4

[7] = Bassia scoparia, post-emergence, scale 0 to 100 (0 no effect, 100 complete control), read-out: Kochia plant response rating
[8] = Bassia scoparia, post-emergence, scale 0 to 100, 0 no effect, 100 complete control, read-out: Plant response rating, Kochia
[9] = Avena fatua, post-emergence, scale 0 to 100 (0 no effect, 100 complete control), read-out: Oat, Wild plant response rating
[10] = Avena fatua, post-emergence, scale 0 to 100, 0 no effect, 100 complete control, read-out: Plant response rating, Oat, Wild
[11] = Stellaria media, post-emergence, scale 0 to 100 (0 no effect, 100 complete control), read-out: Chickweed plant response rating
[12] = Stellaria media, post-emergence, scale 0 to 100, 0 no effect, 100 complete control, read-out: Plant response rating, Chickweed
[13] = post-emergence, Postemergence, 0 to 100 scale (0 no effect, 100 complete control)
[14] = pre-emergence, Preemergence, 0 to 100 scale (0 no effect, 100 complete control)
[15] = post-emergence, postemergence, 0 to 100 scale, 0 no effect, 100 complete control
[16] = pre-emergence, Preemergence, 0 to 100 scale where 0 is no effect and 100 is complete control

SMILES	pest or weed control at 31 g/ha (kochia (Kochia scoparia); [7])	pest or weed control at 62 g/ha (kochia (Kochia scoparia); [8])	pest or weed control at 31 g/ha (wild oat (Avena fatua); [9])	pest or weed control at 62 g/ha (wild oat (Avena fatua); [10])	pest or weed control at 31 g/ha [1, 11]	pest or weed control at 62 g/ha [1, 12]	Plant response rating, Waterhemp_RES1 ([2]; 8 g ai/ha Postemergence)	Plant response rating, Waterhemp_RES1 ([2]; 16 g ai/ha Postemergence)	Plant response rating, Waterhemp_RES1 ([2]; 31 g ai/ha Postemergence)	Plant response rating, Waterhemp_RES1 ([2]; 62 g ai/ha Postemergence)	Plant response rating, Waterhemp_RES1 ([2]; 125 g ai/ha Postemergence)	Plant response rating, Waterhemp_RES2 ([3]; 8 g ai/ha Postemergence)	Plant response rating, Waterhemp_RES2 ([3]; 16 g ai/ha Postemergence)	Plant response rating, Waterhemp_RES2 ([3]; 31 g ai/ha Postemergence)	Plant response rating, Waterhemp_RES2 ([3]; 62 g ai/ha Postemergence)	Plant response rating, Waterhemp_RES2 ([3]; 125 g ai/ha Postemergence)	other results
FC(F)c1cc(-c2ccccc2Oc2ncc(Cl)cn2)no1 [Compound 35, 5-chloro-2-[2-[5-(difluoromethyl)-3-isoxazolyl]phenoxy]pyrimidine]	100%	100%	40%	45%	85%	100%	90	80	90	100	100	90	90	95	100	100	Plant response rating (scale 0 to 100), Kochia (kochia (Kochia scoparia); 8 g ai/ha): 95; pest or weed control at 16 g/ha (kochia (Kochia scoparia); Bassia scoparia, post-emergence, 16 g ai/ha, scale 0 to 100 (0 no effect, 100 complete control), read-out: Kochia plant response rating): 100%; Plant response rating (scale 0 to 100), Oat, Wild (wild oat (Avena fatua); 8 g ai/ha): 5; pest or weed control at 16 g/ha (wild oat (Avena fatua); Avena fatua, post-emergence, 16 g ai/ha, scale 0 to 100 (0 no effect, 100 complete control), read-out: Oat, Wild plant response rating): 10%; Plant response rating (scale 0 to 100), Chickweed ([1]; 8 g ai/ha): 50; pest or weed control at 16 g/ha ([1]; Stellaria media, post-emergence, 16 g ai/ha, scale 0 to 100 (0 no effect, 100 complete control), read-out: Chickweed plant response rating): 85%; pest or weed control at 1000 g/ha [4, 13]: 100%; pest or weed control at 1000 g/ha [4, 14]: 100%; pest or weed control at 1000 g/ha [5, 13]: 100%; pest or weed control at 1000 g/ha [5, 14]: 100%; pest or weed control at 1000 g/ha [6, 13]: 100%; pest or weed control at 1000 g/ha [6, 14]: 90%
FC(F)c1cc(-c2ccccc2Oc2ncc(Br)cn2)no1 [Compound 62, 5-bromo-2-[2-[5-(difluoromethyl)-3-isoxazolyl]phenoxy]pyrimidine]	98%	100%	30%	40%	70%	95%	80	85	100	100	100	80	80	100	100	100	pest or weed control at 125 g/ha (kochia (Kochia scoparia); Bassia scoparia, post-emergence, 125 g ai/ha, scale 0 to 100, 0 no effect, 100 complete control, read-out: Plant response rating, Kochia): 100%; pest or weed control at 250 g/ha (kochia (Kochia scoparia); Bassia scoparia, post-emergence, 250 g ai/ha, scale 0 to 100, 0 no effect, 100 complete control, read-out: Plant response rating, Kochia): 100%; pest or weed control at 125 g/ha (wild oat (Avena fatua); Avena fatua, post-emergence, 125 g ai/ha, scale 0 to 100, 0 no effect, 100 complete control, read-out: Plant response rating, Oat, Wild): 50%; pest or weed control at 250 g/ha (wild oat (Avena fatua); Avena fatua, post-emergence, 250 g ai/ha, scale 0 to 100, 0 no effect, 100 complete control, read-out: Plant response rating, Oat, Wild): 60%; pest or weed control at 125 g/ha ([1]; Stellaria media, post-emergence, 125 g ai/ha, scale 0 to 100, 0 no effect, 100 complete control, read-out: Plant response rating, Chickweed): 98%; pest or weed control at 250 g/ha ([1]; Stellaria media, post-emergence, 250 g ai/ha, scale 0 to 100, 0 no effect, 100 complete control, read-out: Plant response rating, Chickweed): 100%; pest or weed control at 125 g/ha [4, 15]: 70%; pest or weed control at 500 g/ha [4, 13]: 90%; pest or weed control at 125 g/ha [4, 16]: 100%; pest or weed control at 500 g/ha [4, 16]: 100%; pest or weed control at 125 g/ha [5, 15]: 100%; pest or weed control at 500 g/ha [5, 13]: 100%; pest or weed control at 125 g/ha [5, 16]: 90%; pest or weed control at 500 g/ha [5, 16]: 100%; pest or weed control at 125 g/ha [6, 15]: 90%; pest or weed control at 500 g/ha [6, 13]: 100%; pest or weed control at 125 g/ha [6, 16]: 60%; pest or weed control at 500 g/ha [6, 16]: 90%
